From patent US20230066011A1, “PYRROLOPYRIMIDINE DERIVATIVE, AND PHARMACEUTICAL COMPOSITION FOR PREVENTING OR TREATING PROTEIN KINASE-RELATED DISEASE COMPRISING SAME AS ACTIVE INGREDIENT” (VORONOI CO., LTD., priority 2019, published 2023)
pIC50: −log10 of the molar value.

Key:
human GST-CLK1 = molecular target: T1, human GST-CLK1 (Homo sapiens, UniProt P49759); assay: GST-CLK1 enzyme inhibition, ADP-Glo kinase assay; type: biochemical; settings: ATP 10 μM, GST-CLK1 129-end
T1 construct: purified human GST-CLK1 (129-end, SignalChem) enzyme; purchased SignalChem
T1 sequence (P49759 129-484 limits assumed): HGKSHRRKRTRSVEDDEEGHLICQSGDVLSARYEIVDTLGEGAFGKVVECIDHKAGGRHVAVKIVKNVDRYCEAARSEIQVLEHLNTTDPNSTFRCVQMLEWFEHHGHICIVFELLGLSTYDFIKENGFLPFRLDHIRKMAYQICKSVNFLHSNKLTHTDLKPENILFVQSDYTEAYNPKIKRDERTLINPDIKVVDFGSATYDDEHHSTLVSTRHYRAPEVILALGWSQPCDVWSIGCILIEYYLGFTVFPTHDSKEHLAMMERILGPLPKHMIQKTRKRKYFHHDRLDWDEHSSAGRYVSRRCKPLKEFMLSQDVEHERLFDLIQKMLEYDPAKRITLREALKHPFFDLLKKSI
How it was run: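 Human GST-CLK1 (129-end, 3 ng) reacted with substrate and 10 μM ATP for 1 h at 25° C in 40 mM Tris-HCl pH 7.4, 20 mM MgCl2, 0.5 mg/mL BSA, 50 μM DTT. ADP-Glo luminescence was normalised to solvent control; IC50 (nM) from 3 data sets.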

MDA-MB-468 cell line = assay: Inhibition of proliferation of MDA-MB-468 cancer cells (Cell Titer-Glo); type: cell-based; settings: Homo sapiens, MDA-MB-468, 72 hours
How it was run: (§1)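 Cells seeded at 2,000/well and exposed 72 h to 11 concentrations of compound (3-fold dilutions, final 10.000000 down to 0.000169 μM) in DMEM or RPMI. Viability read by Cell Titer-Glo luminescence after 10 min at room temperature; GI50 calculated from luminescence.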

DYRK1 = DYRK1 (Homo sapiens, UniProt Q13627); assay: Kinase HotSpot service (Reaction Biology Corporation), DYRK1; type: biochemical; settings: ATP 10 uM, read-out: DYRK1 IC50 (values indicated by *)
Method: (§2) The inhibitory activities of the compounds were measured at a 3-fold concentration gradient starting from a maximum compound concentration of […], and the values measured using the Kinase HotSpot service (Reaction Biology Corporation) are indicated by an asterisk (*).
(§3) All the experimental methods were performed as provided by the Kinase HotSpot Customer Protocol (http://www.reactionbiology.com//Kinase_Assay_Protocol).

LRRK2 [1] = molecular target: T2, LRRK2 (Homo sapiens, UniProt Q5S007); assay: LRRK2 enzyme inhibition, ADP-Glo kinase assay; type: biochemical; parameters: purchased Invitrogen PR8604B; settings: ATP 10 μM
How it was run: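 Purified human LRRK2 (25 ng) with 10 μM ATP and 0.2 μg substrate in 40 mM Tris-HCl pH 7.4, 20 mM MgCl2, 0.5 mg/mL BSA, 50 μM DTT, 2 h at 25° C. ADP-Glo luminescence; 12-point compound series from 50 μM final; IC50 relative to solvent control.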
Target sequence in this assay (Q5S007 970-2527 limits assumed): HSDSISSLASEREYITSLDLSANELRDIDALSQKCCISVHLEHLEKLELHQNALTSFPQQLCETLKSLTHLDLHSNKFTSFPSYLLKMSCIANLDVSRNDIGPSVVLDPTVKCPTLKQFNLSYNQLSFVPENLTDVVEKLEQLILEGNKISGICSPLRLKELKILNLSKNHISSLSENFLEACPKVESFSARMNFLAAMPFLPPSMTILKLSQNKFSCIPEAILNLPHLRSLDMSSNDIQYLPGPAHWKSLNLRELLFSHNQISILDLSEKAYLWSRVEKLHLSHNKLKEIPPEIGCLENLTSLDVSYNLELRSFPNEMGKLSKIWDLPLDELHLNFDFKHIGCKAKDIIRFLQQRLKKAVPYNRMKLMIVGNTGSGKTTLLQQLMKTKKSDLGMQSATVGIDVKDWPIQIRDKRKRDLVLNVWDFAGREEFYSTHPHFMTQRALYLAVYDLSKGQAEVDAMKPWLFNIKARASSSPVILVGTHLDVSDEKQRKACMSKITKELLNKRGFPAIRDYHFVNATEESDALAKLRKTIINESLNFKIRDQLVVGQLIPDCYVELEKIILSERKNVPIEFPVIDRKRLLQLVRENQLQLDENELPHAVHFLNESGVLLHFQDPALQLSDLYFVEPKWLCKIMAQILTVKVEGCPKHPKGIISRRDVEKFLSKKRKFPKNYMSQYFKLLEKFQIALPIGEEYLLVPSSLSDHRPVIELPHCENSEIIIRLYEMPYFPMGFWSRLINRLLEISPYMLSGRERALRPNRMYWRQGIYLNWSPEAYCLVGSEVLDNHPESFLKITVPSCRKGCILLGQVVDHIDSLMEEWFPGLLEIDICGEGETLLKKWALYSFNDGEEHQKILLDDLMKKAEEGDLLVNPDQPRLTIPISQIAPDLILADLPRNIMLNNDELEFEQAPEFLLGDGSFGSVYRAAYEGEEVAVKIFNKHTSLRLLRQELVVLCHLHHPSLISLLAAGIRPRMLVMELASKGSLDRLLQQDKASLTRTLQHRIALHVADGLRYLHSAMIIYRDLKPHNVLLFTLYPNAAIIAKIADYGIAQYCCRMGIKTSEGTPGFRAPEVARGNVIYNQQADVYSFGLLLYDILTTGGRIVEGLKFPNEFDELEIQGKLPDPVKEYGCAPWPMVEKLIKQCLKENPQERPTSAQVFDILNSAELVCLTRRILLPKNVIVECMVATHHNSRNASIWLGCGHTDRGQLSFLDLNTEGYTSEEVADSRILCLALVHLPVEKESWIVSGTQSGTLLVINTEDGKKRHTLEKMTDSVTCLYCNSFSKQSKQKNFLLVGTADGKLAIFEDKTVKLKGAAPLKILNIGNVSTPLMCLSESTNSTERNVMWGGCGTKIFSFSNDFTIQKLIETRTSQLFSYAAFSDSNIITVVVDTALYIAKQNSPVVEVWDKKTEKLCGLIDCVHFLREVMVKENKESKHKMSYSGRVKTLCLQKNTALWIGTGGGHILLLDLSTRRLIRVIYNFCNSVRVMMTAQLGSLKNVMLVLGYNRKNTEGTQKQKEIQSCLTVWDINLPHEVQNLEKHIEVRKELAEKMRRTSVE

LRRK2 (G2019S) = LRRK2 (G2019S) (Homo sapiens, UniProt Q5S007, G2019S); assay: LRRK2 G2019S enzyme inhibition, ADP-Glo kinase assay; type: biochemical; parameters: purchased SignalChem L10-12GG; settings: ATP 25 μM
LRRK2 (G2019S), sequence (Q5S007 970-2527 G2019S limits assumed): as the sequence (Q5S007 970-2527 limits assumed) above, with G1050S counted along it
How it was run: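 Purified human LRRK2 G2019S (16 ng) with 25 μM ATP and 0.2 μg substrate, 2 h at 25° C. in Tris-HCl pH 7.4, MgCl2, BSA, DTT buffer; compounds at 12 final concentrations, 50 μM down to 0.000001024 μM. ADP-Glo luminescence versus solvent control gave IC50.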

CLK1 = molecular target: T3, CLK1 (Homo sapiens, UniProt P49759); assay: Kinase HotSpot service (Reaction Biology Corporation), CLK1; type: biochemical; settings: ATP 10 uM, read-out: CLK1 IC50 (values indicated by *)
T3 construct: purchased DiscoverX Corp. (ScanMAX Kinase analysis panel, service)
T3 sequence (P49759 whole entry): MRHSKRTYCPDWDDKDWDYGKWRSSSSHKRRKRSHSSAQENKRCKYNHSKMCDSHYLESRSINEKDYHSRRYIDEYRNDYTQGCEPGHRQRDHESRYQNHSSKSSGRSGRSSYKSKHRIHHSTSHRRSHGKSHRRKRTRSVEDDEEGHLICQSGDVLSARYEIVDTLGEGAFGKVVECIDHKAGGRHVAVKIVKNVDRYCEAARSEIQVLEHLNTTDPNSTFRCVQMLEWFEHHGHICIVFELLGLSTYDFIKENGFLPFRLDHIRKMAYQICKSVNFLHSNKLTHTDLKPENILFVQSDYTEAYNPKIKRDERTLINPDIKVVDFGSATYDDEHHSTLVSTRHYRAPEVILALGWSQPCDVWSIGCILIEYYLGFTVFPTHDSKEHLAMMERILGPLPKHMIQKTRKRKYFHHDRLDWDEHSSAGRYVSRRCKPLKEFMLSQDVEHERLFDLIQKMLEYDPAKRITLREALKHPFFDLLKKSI
Method: as §2, §3

MDA-MB-231 cell line = assay: Inhibition of proliferation of MDA-MB-231 cancer cells (Cell Titer-Glo); type: cell-based; settings: Homo sapiens, 72 hours
How it was run: as §1

LRRK2 [2] = molecular target: T2, LRRK2; assay: Kinase HotSpot service (Reaction Biology Corporation), LRRK2; type: biochemical; parameters: purchased DiscoverX Corp. (ScanMAX Kinase analysis panel, service); settings: ATP 10 uM, read-out: LRRK2 IC50 (values indicated by *)
Method: as §2, §3
Target sequence in this assay (Q5S007 whole entry): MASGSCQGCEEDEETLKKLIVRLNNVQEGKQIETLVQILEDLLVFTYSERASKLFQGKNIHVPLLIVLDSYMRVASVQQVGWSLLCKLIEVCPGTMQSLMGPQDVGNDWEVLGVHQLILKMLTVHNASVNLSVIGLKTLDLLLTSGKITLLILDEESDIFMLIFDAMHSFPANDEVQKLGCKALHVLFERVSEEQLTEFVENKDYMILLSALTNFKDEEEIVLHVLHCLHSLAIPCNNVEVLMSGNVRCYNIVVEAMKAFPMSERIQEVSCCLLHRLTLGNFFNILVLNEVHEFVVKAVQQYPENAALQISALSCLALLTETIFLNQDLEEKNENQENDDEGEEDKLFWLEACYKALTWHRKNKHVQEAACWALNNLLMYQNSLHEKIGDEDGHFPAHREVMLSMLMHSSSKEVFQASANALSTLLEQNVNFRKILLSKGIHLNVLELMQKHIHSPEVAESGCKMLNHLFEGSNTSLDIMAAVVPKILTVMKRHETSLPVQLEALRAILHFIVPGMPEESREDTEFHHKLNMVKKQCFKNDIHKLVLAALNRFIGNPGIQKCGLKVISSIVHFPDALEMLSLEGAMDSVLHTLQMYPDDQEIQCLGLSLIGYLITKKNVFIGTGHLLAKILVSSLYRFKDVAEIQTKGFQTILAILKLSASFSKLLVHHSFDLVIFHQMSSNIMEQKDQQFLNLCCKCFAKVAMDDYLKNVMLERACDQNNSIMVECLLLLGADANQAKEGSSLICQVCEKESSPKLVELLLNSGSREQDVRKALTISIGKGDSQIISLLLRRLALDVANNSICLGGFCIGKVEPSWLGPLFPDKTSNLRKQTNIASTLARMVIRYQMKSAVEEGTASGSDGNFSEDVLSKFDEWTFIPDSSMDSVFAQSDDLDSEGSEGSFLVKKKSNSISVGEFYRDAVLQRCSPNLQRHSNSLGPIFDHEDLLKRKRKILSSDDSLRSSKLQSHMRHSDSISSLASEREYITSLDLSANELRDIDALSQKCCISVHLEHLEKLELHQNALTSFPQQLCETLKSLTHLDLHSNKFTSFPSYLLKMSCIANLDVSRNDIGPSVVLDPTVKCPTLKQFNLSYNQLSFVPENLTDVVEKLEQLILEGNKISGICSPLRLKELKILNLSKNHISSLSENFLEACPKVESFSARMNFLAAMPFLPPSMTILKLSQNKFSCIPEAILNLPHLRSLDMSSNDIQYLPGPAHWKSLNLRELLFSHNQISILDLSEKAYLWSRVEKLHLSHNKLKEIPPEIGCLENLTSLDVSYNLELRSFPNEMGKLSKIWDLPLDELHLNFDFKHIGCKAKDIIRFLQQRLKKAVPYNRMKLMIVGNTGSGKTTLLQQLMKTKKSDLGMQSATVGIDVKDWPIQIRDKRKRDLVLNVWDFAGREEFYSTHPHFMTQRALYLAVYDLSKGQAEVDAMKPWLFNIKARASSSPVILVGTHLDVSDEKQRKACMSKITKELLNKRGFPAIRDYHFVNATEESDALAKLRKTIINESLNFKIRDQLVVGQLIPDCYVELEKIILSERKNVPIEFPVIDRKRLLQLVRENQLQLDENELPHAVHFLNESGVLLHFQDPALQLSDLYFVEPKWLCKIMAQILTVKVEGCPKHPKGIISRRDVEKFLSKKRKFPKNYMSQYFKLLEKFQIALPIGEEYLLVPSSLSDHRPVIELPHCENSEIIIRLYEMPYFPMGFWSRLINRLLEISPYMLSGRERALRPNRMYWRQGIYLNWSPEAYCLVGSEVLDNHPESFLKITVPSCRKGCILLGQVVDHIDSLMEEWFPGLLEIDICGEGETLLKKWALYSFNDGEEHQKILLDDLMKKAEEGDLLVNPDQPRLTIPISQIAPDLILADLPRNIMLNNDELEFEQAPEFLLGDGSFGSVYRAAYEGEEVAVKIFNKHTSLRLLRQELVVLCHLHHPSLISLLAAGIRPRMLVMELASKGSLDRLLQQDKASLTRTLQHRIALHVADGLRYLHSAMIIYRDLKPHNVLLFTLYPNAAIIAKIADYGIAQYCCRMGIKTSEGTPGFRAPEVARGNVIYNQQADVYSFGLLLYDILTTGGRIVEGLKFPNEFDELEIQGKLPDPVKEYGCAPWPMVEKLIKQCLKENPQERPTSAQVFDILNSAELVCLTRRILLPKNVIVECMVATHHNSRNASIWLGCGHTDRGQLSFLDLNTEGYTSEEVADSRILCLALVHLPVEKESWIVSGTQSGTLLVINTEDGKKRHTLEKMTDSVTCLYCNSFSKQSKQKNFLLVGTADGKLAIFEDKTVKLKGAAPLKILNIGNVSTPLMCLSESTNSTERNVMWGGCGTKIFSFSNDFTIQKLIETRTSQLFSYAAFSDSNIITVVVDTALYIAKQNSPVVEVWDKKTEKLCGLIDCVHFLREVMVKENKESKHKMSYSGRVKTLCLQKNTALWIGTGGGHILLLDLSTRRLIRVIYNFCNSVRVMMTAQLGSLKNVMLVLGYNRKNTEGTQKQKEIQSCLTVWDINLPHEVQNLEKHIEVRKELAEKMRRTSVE

human DYRK1A and tau = assay: Inhibition of tau phosphorylation, ClariCELL Kinase Cell-Based Assay, HEK 293 cells expressing human DYRK1A and tau; settings: for inhibition at 1 µM: HEK293, read-out: % inhibition at 1 uM, tau phosphorylation, compound 1 uM; for inhibition at 0.25 µM / inhibition at 0.5 µM: HEK293, tau phosphorylation; for inhibition at 0.25 µM: compound 0.25 uM; for inhibition at 0.5 µM: compound 0.5 uM
How it was run: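 Cell-based service assay: HEK 293 cells transiently expressing human DYRK1A and tau were treated with compound and lysed. Released tau was plate-captured and its phosphorylation quantified by ELISA with a phospho-tau-specific antibody.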

| Structure (SMILES) | pIC50 (human GST-CLK1) | GI50 (MDA-MB-468 cell line) | pIC50 (DYRK1) | pIC50 (LRRK2 [1]) | pIC50 (LRRK2 (G2019S)) | pIC50 (CLK1) | GI50 (MDA-MB-231 cell line) | pIC50 (LRRK2 [2]) | inhibition at 1 µM (human DYRK1A and tau) | inhibition at 0.25 µM (human DYRK1A and tau) | inhibition at 0.5 µM (human DYRK1A and tau) |
| --- | --- | --- | --- | --- | --- | --- | --- | --- | --- | --- | --- |
| COc1cc(P2(=O)CCN(C3CC3)CC2)ccc1Nc1nc(C2CC2)c2c(C(F)(F)F)c[nH]c2n1 [Example 394, 1-cyclopropyl-4-(4-((4-cyclopropyl-5-(trifluoromethyl)-7H-pyrrolo[2,3-d]pyrimidin-2-yl)amino)-3-methoxyphenyl)-1,4-azaphosphinane4-oxide] | 6.00 to 6.52 | 301 to 1000 nM | > 7.00 | > 7.00 | – | – | – | – | – | – | – |
| CCc1nc(Nc2ccc(C(=O)N3CCC(N4CCOCC4)CC3)c3c2OCCO3)nc2[nH]cc(C(F)(F)F)c12 [Example 395, (8-((4-ethyl-5-(trifluoromethyl)-7H-pyrrolo[2,3-d]pyrimidin-2-yl)amino)-2,3-dihydrobenzo [b][1,4]dioxin-5-yl)(4-morpholino-piperidin-1-yl)methanone] | 6.52 to 7.00 | – | > 7.00 | > 7.00 | – | – | – | – | – | – | – |
| CCc1nc(Nc2ccc(P3(=O)CCN(C4CC4)CC3)cc2OC)nc2[nH]cc(C(F)(F)F)c12 [Example 396, 1-cyclopropyl-4-(4-((4-ethyl-5-(trifluoromethyl)-7H-pyrrolo[2,3-d]pyrimidin-2-yl)amino)-3-methoxyphenyl)-1,4-azaphosphinane-4-oxide] | 6.00 to 6.52 | – | > 7.00 | 6.52 to 7.00 | – | – | – | – | – | – | – |
| C=CCNc1nc(Nc2ccc(S(=O)(=O)N3CCC(N4CCOCC4)CC3)cc2OC)nc2[nH]cc(C(F)(F)F)c12 [Example 469, N^4-allyl-N2-(2-methoxy-4-((4-morpholino-piperidin-1-yl)sulfonyl)phenyl)-5-(trifluoromethyl)-7H-pyrrolo[2,3-d]pyrimidine-2,4-diamine] | – | 101 to 300 nM | > 7.00 | – | > 7.00 | > 7.00 | 101 to 300 nM | > 7.00 | – | – | – |
| O=C(c1ccc(Nc2nc(C3CC3)c3c(C(F)(F)F)c[nH]c3n2)c2c1CCO2)N1CC[C@@H](N2CCOCC2)C1 [Example 471, (R)-(7-((4-cyclopropyl-5-(trifluoromethyl)-7H-pyrrolo[2,3-d]pyrimidin-2-yl)amino)-2,3-dihydrobenzo-furan-4-yl)(3-morpholino-pyrrolidin-1-yl)methanone] | > 7.00 | – | > 7.00 | – | – | – | – | – | 42.8% | 3.9% | 29.6% |

The next lines start with results.

| pIC50 (human GST-CLK1) | GI50 (MDA-MB-468 cell line) | pIC50 (DYRK1) | pIC50 (LRRK2 [1]) | pIC50 (LRRK2 (G2019S)) | pIC50 (CLK1) | GI50 (MDA-MB-231 cell line) | pIC50 (LRRK2 [2]) | Structure (SMILES) | inhibition at 1 µM (human DYRK1A and tau) | inhibition at 0.25 µM (human DYRK1A and tau) | inhibition at 0.5 µM (human DYRK1A and tau) |
| --- | --- | --- | --- | --- | --- | --- | --- | --- | --- | --- | --- |
| > 7.00 | 101 to 300 nM | > 7.00 | > 7.00 | – | – | – | – | N#Cc1c[nH]c2nc(Nc3ccc(C(=O)N4CCOCC4)c4c3OCCO4)nc(C3CC3)c12 [Example 220, 4-cyclopropyl-2-((8-(morpholine-4-carbonyl)-2,3-dihydrobenzo[b][1,4]dioxin-5-yl)amino)-7H-pyrrolo[2,3-d]pyrimidine-5-carbonitrile] | – | – | – |
| 6.52 to 7.00 | – | > 7.00 | – | – | – | – | – | COc1cc(P(C)(C)=O)ccc1Nc1nc(C2CC2)c2c(C(F)(F)F)c[nH]c2n1 [Example 229, (4-((4-cyclopropyl-5-(trifluoromethyl)-7H-pyrrolo[2,3-d]pyrimidin-2-yl)amino)-3-methoxyphenyl)dimethylphosphine oxide] | – | – | – |
| 6.00 to 6.52 | – | > 7.00 | – | – | – | – | – | O=S(=O)(c1ccc(Nc2nc(C3CC3)c3c(C(F)(F)F)c[nH]c3n2)c2c1OCCO2)N1CCOCC1 [Example 470, 4-cyclopropyl-N-(8-(morpho-linosulfonyl)-2,3-dihydrobenzo [b][1,4]dioxin-5-yl)-5-(trifluoromethyl)-7H-pyrrolo[2,3-d]pyrimidin-2-amine] | 29.1% | 5.8% | 19.2% |
